Entries after “also recorded” stand apart in the source; their conditions may differ. Like-named read-outs stand apart in the source and are kept apart here.
Experiments:
[1] = type: physicochemical
Description: All conditions and stock preparation procedures were identical to the conditions applied in the transporter assays (Table 74, Table 75 and Table 76). […] A follow-up assay was carried out at 7 concentrations in order to correct the nominal concentrations for the IC50 calculations (Table 78). Where NSB was observed (>20% loss) the assay concentrations were corrected according to the result of the respective NSB assay.
All conditions and stock preparation procedures were identical to the conditions applied in the transporter assays.
Samples (1.5×C0 or Total) were immediately taken after mixing to determine the total initial concentrations. The assay mixes were pre-incubated for 15 minutes at 37° C. and at 32° C. in case of BCRP and MDR1. After the pre-incubation step the assay mixes were 1.5-times diluted with (pre-warmed) transport buffer reaching the final nominal concentrations of the compounds in the VT assay and then were further incubated at 37° C. or 32° C. for BCRP and MDR1 and sampled in the end of incubation (timc).
The aqueous buffer was mixed, and samples (C0 or Total) were immediately taken for determining the total initial concentrations. The helper plate was pre-warmed for 15 minutes at 37° C. The pre-warmed aliquots of the aqueous buffers with the test articles (50 μL) were transferred from the helper plate into the wells of another 96-well plate (assay plate) and incubated for 30 minutes (pre-incubation) then removed from the wells. Thereafter the same wells of the assay plate were dosed again with other aliquots of the aqueous buffers with the test articles and were further incubated in the assay plate at 37° C. and finally sampled (tinc).

rat gut microbiota = assay: Stability in rat gut microbiota; settings: rat fecal matter, 37° C., 0-120 min
Description: FIG. 7A. […] Gut microbiota from rat and human sources were extracted and purified in PBS at pH 6.0 or 7.4. A stock solution of 10 mM was prepared and a 10 μL aliquot was added to extracted microorganisms at 0 min. […] Values represent mean+SEM of n=3 separate experiments.
FIG. 7B. […] Gut microbiota from rat and human sources were extracted and purified in PBS at pH 6.0 or 7.4. A stock solution of 10 mM was prepared and a 10 μL aliquot was added to extracted microorganisms at 0 min. […] Values represent mean+SEM of n=3 separate experiments.
Rat fecal material was obtained and weighed. One capsule of the raw probiotics was crushed and weighed prior to use. The weighed samples were then solubilized in PBS at pH 6.0 and 7.4 to extract microorganisms. The samples were centrifuged at 18,000×g for 10 min. to remove particulates and the supernatant was used to evaluate test article stability. An aliquot (50 μL) of the test article stock solutions were added to the fecal extract (final concentration 0.5 mM) and allowed to incubate at 37° C. […] The collected sample was quenched in acetonitrile/0.1% formic acid mixture.

[2] = HBSS (pH 7.4) uptake buffer, 37° C., nominal 10.00 μM
[3] = HBSS (pH 7.4) uptake buffer, 37° C., nominal 100.00 μM
[4] = HBSS (pH 7.4), 37° C., nominal 0.412 μM, IC50 determination
[5] = HBSS (pH 7.4), 37° C., nominal 1.235 μM, IC50 determination
[6] = HBSS (pH 7.4), 37° C., nominal 3.704 μM, IC50 determination
[7] = HBSS (pH 7.4), 37° C., nominal 11.11 μM, IC50 determination
[8] = HBSS (pH 7.4), 37° C., nominal 33.33 μM, IC50 determination
[9] = HBSS (pH 7.4), 37° C., nominal 100.00 μM, IC50 determination
[10] = KH (pH 8.0) uptake buffer, 37° C., nominal 10.000 μM
[11] = KH (pH 8.0) uptake buffer, 37° C., nominal 100.000 μM
[12] = KH (pH 8.0), 37° C., nominal 0.412 μM, IC50 determination
[13] = KH (pH 8.0), 37° C., nominal 1.235 μM, IC50 determination
[14] = KH (pH 8.0), 37° C., nominal 3.704 μM, IC50 determination
[15] = KH (pH 8.0), 37° C., nominal 11.11 μM, IC50 determination
[16] = KH (pH 8.0), 37° C., nominal 33.33 μM, IC50 determination
[17] = KH (pH 8.0), 37° C., nominal 100.00 μM, IC50 determination
[18] = Transport buffer (pH 7.4) for BSEP VT inhibition assay, 37° C., nominal C0 10.00 μM
[19] = Transport buffer (pH 7.4) for BSEP VT inhibition assay, 37° C., nominal C0 100.00 μM
[20] = Transport buffer with sucrose (pH 7.4) for BCRP and MDR1 VT inhibition assay, 32° C., nominal C0 10.00 μM
[21] = Transport buffer with sucrose (pH 7.4) for BCRP and MDR1 VT inhibition assay, 32° C., nominal C0 100.00 μM

Clc1ccc(C2(OCC3OCCO3)c3ccccc3C3=NCCN32)cc1 (centres unmarked) [Compound I-19]
Non-specific binding (NSB) ([1]; BCRP, BSEP and MDR1 VT inhibition assay setup): did not show any loss due to plastic binding
Non-specific binding (NSB) ([1]; HBSS (pH 7.4) and KH (pH 8.0) uptake assay buffers): more than 20%
Concentration after incubation [1, 2]: 5.98 ± 0.13 µM
Loss of Compound I-19 during the NSB assay [1, 2]: 34%
Measured dosing concentrations [1, 2]: 8.99 ± 0.60 µM
Concentration after incubation [1, 3]: 59.43 ± 5.59 µM
Loss of Compound I-19 during the NSB assay [1, 3]: 23%
Measured dosing concentrations [1, 3]: 76.99 ± 6.62 µM
Concentration after incubation [1, 4]: 0.35 ± 0.03 µM
Loss of Compound I-19 during the NSB assay [1, 4]: 39%
Measured dosing concentrations [1, 4]: 0.57 ± 0.14 µM
Concentration after incubation [1, 5]: 0.83 ± 0.07 µM
Loss of Compound I-19 during the NSB assay [1, 5]: 30%
Measured dosing concentrations [1, 5]: 1.18 ± 0.09 µM
Concentration after incubation [1, 6]: 2.49 ± 0.18 µM
Loss of Compound I-19 during the NSB assay [1, 6]: 49%
Measured dosing concentrations [1, 6]: 4.84 ± 0.73 µM
Concentration after incubation [1, 7]: 6.86 ± 0.20 µM
Loss of Compound I-19 during the NSB assay [1, 7]: 29%
Measured dosing concentrations [1, 7]: 9.59 ± 1.50 µM
Concentration after incubation [1, 8]: 17.44 ± 3.56 µM
Loss of Compound I-19 during the NSB assay [1, 8]: 27%
Measured dosing concentrations [1, 8]: 23.77 ± 2.59 µM
Concentration after incubation [1, 9]: 34.49 ± 3.00 µM
Loss of Compound I-19 during the NSB assay [1, 9]: 12%
Measured dosing concentrations [1, 9]: 38.99 ± 3.97 µM
Concentration after incubation [1, 10]: 5.54 ± 0.13 µM
Loss of Compound I-19 during the NSB assay [1, 10]: 36%
Measured dosing concentrations [1, 10]: 8.68 ± 0.34 µM
Concentration after incubation [1, 11]: 20.35 ± 1.94 µM
Loss of Compound I-19 during the NSB assay [1, 11]: 33%
Measured dosing concentrations [1, 11]: 30.52 ± 1.33 µM
Concentration after incubation [1, 12]: 0.27 ± 0.02 µM
Loss of Compound I-19 during the NSB assay [1, 12]: 39%
Measured dosing concentrations [1, 12]: 0.44 ± 0.10 µM
Concentration after incubation [1, 13]: 0.73 ± 0.04 µM
Loss of Compound I-19 during the NSB assay [1, 13]: 34%
Measured dosing concentrations [1, 13]: 1.10 ± 0.10 µM
Concentration after incubation [1, 14]: 1.68 ± 0.26 µM
Loss of Compound I-19 during the NSB assay [1, 14]: 36%
Measured dosing concentrations [1, 14]: 2.63 ± 1.34 µM
Concentration after incubation [1, 15]: 4.05 ± 0.49 µM
Loss of Compound I-19 during the NSB assay [1, 15]: 45%
Measured dosing concentrations [1, 15]: 7.32 ± 3.86 µM
Concentration after incubation [1, 16]: 12.58 ± 1.30 µM
Loss of Compound I-19 during the NSB assay [1, 16]: 39%
Measured dosing concentrations [1, 16]: 20.72 ± 2.88 µM
Concentration after incubation [1, 17]: 34.06 ± 2.30 µM
Loss of Compound I-19 during the NSB assay [1, 17]: 25%
Measured dosing concentrations [1, 17]: 45.32 ± 9.94 µM
Concentration after incubation (tinc) [1, 18]: 12.92 ± 0.21 µM
Loss of Compound I-19 during the NSB assay [1, 18]: −4%
Measured dosing concentrations ([…] C0) [1, 18]: 18.55 ± 0.06 µM
Concentration after incubation (tinc) [1, 19]: 122.52 ± 9.60 µM
Loss of Compound I-19 during the NSB assay [1, 19]: −13%
Measured dosing concentrations ([…] C0) [1, 19]: 162.83 ± 11.51 µM
Concentration after incubation (tinc) [1, 20]: 13.10 ± 1.26 µM
Loss of Compound I-19 during the NSB assay [1, 20]: −11%
Measured dosing concentrations ([…] C0) [1, 20]: 17.68 ± 0.42 µM
Concentration after incubation (tinc) [1, 21]: 124.55 ± 5.96 µM
Loss of Compound I-19 during the NSB assay [1, 21]: −12%
Measured dosing concentrations ([…] C0) [1, 21]: 167.14 ± 11.84 µM
Concentration after incubation ([1]; pH 7.4): 0.15 ± 0.01 µM
Loss of Compound I-19 during the NSB assay ([1]; pH 7.4): 33%
Measured dosing concentrations ([1]; pH 7.4): 0.23 ± 0.02 µM
Concentration after incubation ([1]; pH 8): 0.10 ± 0.01 µM
Loss of Compound I-19 during the NSB assay ([1]; pH 8): 41%
Measured dosing concentrations ([1]; pH 8): 0.17 ± 0.02 µM
% parent compound remaining (rat gut microbiota; pH 6, 0.5 mM): at or above 100% for all time points except 120 min
% parent compound remaining (rat gut microbiota; pH 7.4, 0.5 mM): time-dependent decrease in the amount of parent compound present; also recorded: unstable
Compound A formed (Aa/Ai) (in vitro; 0 min): 0.60
% Remaining (in vitro; 2.0 μM, 0 min): 100%
Aa/Ai Mean (N = 2) (in vitro; 2.0 μM, 0 min): 1.62
% Remaining (in vitro; 2.0 μM, 5 min): 99.1%
Aa/Ai Mean (N = 2) (in vitro; 2.0 μM, 5 min): 1.61
% Remaining (in vitro; 2.0 μM, 15 min): 98.2%
Aa/Ai Mean (N = 2) (in vitro; 2.0 μM, 15 min): 1.59
% Remaining (in vitro; 2.0 μM, 30 min): 92.8%
Aa/Ai Mean (N = 2) (in vitro; 2.0 μM, 30 min): 1.50
% Remaining (in vitro; 2.0 μM, 60 min): 79.6%
Aa/Ai Mean (N = 2) (in vitro; 2.0 μM, 60 min): 1.29
T1/2 (in vitro; 2.0 μM, 60 min incubation): 2.97 h
Compound A formed (Aa/Ai) (in vitro; 5 min): 0.59
Compound A formed (Aa/Ai) (in vitro; 15 min): 0.57
Compound A formed (Aa/Ai) (in vitro; 30 min): 0.52
Compound A formed (Aa/Ai) (in vitro; 60 min): 0.47

— patent US20250108038A1 (priority 2023, published 2025)
